Results taken from patent US5583144A, “Methods for treating erectile impotence” (priority 1995, dated 1996).
“Also recorded” adds a separate entry of the source.

Legend:
[1] = in water and acid solutions; cited from earlier work
[2] = system: alpha-adrenergic receptor; experiment: Inhibition of epinephrine-induced pressor response (arterial blood pressure) in pentobarbital anesthetized rats; format: in vivo, Sprague-Dawley rats; conditions: for duration of action relative to that of phentolamine: 0.25 mg/kg iv each, four rats per treatment, alpha-adrenergic antagonism / duration of vasodilation (FIG. 1); for estimated pharmacologic half-life on alpha-adrenergic receptor antagonism: epinephrine 1.0 ug/kg iv challenge, pentobarbital anesthetized rats; for alpha-adrenergic antagonism in vivo: inhibition of the pressor effect of epinephrine challenge
Experimental: (§1) Eight male normotensive Sprague-Dawley rats weighing between 350 to 380 grams were used in these studies. Animals were fed and watered ad libitum in a temperature (22 degrees and humidity (50%) controlled vivarium with a light dark cycle of 12 hours.
Epinephrine, D,L-piperoxan, and phentolamine (Sigma Chemical Company; St. Louis, Mo.) were solubilized in 0.9% saline on the day of the experiment. All doses were calculated on free base weight. The rats were anesthetized with pentobarbital sodium 60 mg/kg i.p. All animals were checked for depth of anesthesia before proceeding further using the corneal reflex and toe pinch response as indicators. The ventral surface of the neck was shaven and a longitudinal incision, approximately 2 cm long, was made on the ventral surface. The trachea was isolated and intubated (PE205; Intramedic, Parsippany, N.J.) . The left internal jugular vein and right common carotid artery were cannulated (PE50; Clay Adams, Becton Dickinson, Parsippany, N.J.). The cannulas were heparinized (Sodium heparin 60 units/ml) and inserted approximately 1.5 cm into the vessels and were secured with 4-0 silk suture. The animal was placed in the supine position, and body temperature was maintained via a heat lamp. A short piece of hypodermic tubing was inserted into the venous and arterial cannulas, and each cannula connected to a three way stopcock via a section of PE50 and 23 gauge Luer stub. The jugular line was used for administration of epinephrine and either piperoxan or phentolamine. In order to directly record arterial blood pressure, the carotid arterial line was connected to an electronic blood pressure transducer (P23db; Gould Electronics, Oxnard, Calif.). The blood pressure transducer was connected to a Gould transducer amplifier and a thermal recorder for the purpose of recording the arterial blood pressure waveform. After a stable blood pressure baseline was obtained, epinephrine was injected intravenously at a dose of 1.0 ug/kg for the purpose of inducing an alpha-adrenergic receptor mediated pressor response. This response was quantified by measurement of the arterial blood pressure waveform. After the epinephrine-induced pressor effect returned to baseline, either phentolamine or piperoxan was administered intravenously at a dose of 0.25 mg/kg. After dosing with piperoxan and phentolamine, epinephrine injections were repeated at 5, 10, 15, 20, 30, 40, 50, and 60 minutes post dosing. Arterial blood pressure was measured continuously during the length of the experiments.
Percent inhibition of the epinephrine-induced pressor effect by both phentolamine and piperoxan was used as a measure of inhibition of the alpha-adrenergic receptor. As stated previously, inhibition of the alpha receptor results in vasodilatation. Percent inhibition was calculated by the following formula: [formula]

[3] = cited from earlier work
[4] = system: vascular alpha-adrenergic receptors; conditions: epinephrine 1.0 ug/kg iv; all rats tested
Experimental: as §1
Epinephrine, D,L-piperoxan, and phentolamine (Sigma Chemical Company; St. Louis, Mo.) were solubilized in 0.9% saline on the day of the experiment. All doses were calculated on free base weight. The rats were anesthetized with pentobarbital sodium 60 mg/kg i.p. All animals were checked for depth of anesthesia before proceeding further using the corneal reflex and toe pinch response as indicators. The ventral surface of the neck was shaven and a longitudinal incision, approximately 2 cm long, was made on the ventral surface. The trachea was isolated and intubated (PE205; Intramedic, Parsippany, N.J.) . The left internal jugular vein and right common carotid artery were cannulated (PE50; Clay Adams, Becton Dickinson, Parsippany, N.J.). […] This response was quantified by measurement of the arterial blood pressure waveform. […] Arterial blood pressure was measured continuously during the length of the experiments.
Percent inhibition of the epinephrine-induced pressor effect by both phentolamine and piperoxan was used as a measure of inhibition of the alpha-adrenergic receptor. […] Percent inhibition was calculated by the following formula: [formula]

erectile dysfunction = conditions: cited from earlier work; for priapism or extremely long erections following treatment for erectile dysfunction: men treated for erectile dysfunction, literature; for duration of action / erections: agents used to treat impotence, causing pain and general discomfort

c1ccc2c(c1)OCC(CN1CCCCC1)O2 (racemic) [piperoxan]
solubility [1]: freely soluble
duration of action relative to that of phentolamine [2]: approximately one-half
duration of action relative to that of phentolamine ([2]; listed as Piperoxan): approximately half
biological half-life / duration of action compared with phentolamine ([2]; 0.25 mg/kg iv, FIG. 1): much shorter biological half-life; also recorded: shorter duration of action than phentolamine
estimated pharmacologic half-life on alpha-adrenergic receptor antagonism ([2]; 0.25 mg/kg iv): approximately 30 minutes
alpha-adrenergic antagonism in vivo ([2]; 0.25 mg/kg iv): inhibitory to the pressor-induced effect of epinephrine challenge; also recorded: alpha-adrenergic antagonist in vivo
storage stability of aqueous solution ([3]; aqueous solution at pH 5.0, room temperature): many months of storage at room temperature
stability of aqueous solution to autoclaving ([3]; aqueous solution at pH 5.0): stable to autoclaving
hygroscopicity of crystals ([3]; crystals): not hygroscopic
stability of crystals ([3]; crystals, light, air, normal storage temperatures): stable to light, air, and normal storage temperatures

CNC[C@H](O)c1ccc(O)c(O)c1 [epinephrine]
arterial blood pressure change [4]: marked increase in arterial blood pressure in all rats tested

COc1ccc(Cc2nccc3cc(OC)c(OC)cc23)cc1OC [papaverine]
priapism or extremely long erections following treatment for erectile dysfunction (erectile dysfunction): priapism or extremely long erections

CC(COc1ccccc1)N(CCCl)Cc1ccccc1 (stereo not shown) [phenoxybenzamine]
priapism or extremely long erections following treatment for erectile dysfunction (erectile dysfunction): priapism or extremely long erections

Cc1ccc(N(CC2=NCCN2)c2cccc(O)c2)cc1 [phentolamine]
estimated pharmacologic half-life on alpha-adrenergic receptor antagonism ([2]; 0.25 mg/kg iv): greater than 60 minutes
alpha-adrenergic antagonism in vivo ([2]; 0.25 mg/kg iv): inhibitory to the pressor-induced effect of epinephrine challenge
duration of action / erections (erectile dysfunction): extremely long duration of action, resulting in erections which last several hours
priapism or extremely long erections following treatment for erectile dysfunction (erectile dysfunction): priapism or extremely long erections

O=c1n(CCCN2CCN(c3cccc(Cl)c3)CC2)nc2ccccn12 [trazodone]
priapism or extremely long erections following treatment for erectile dysfunction (erectile dysfunction): priapism or extremely long erections

COC(=O)[C@@H]1[C@H]2C[C@H]3c4[nH]c5ccccc5c4CCN3C[C@@H]2CC[C@@H]1O [yohimbine]
duration of action / erections (erectile dysfunction): extremely long duration of action, resulting in erections which last several hours
